In general, kcat/Km refers to the turnover number divided by the Michaelis constant. A word on the Km: it is the substrate concentration at which the rate is half of its maximum. Usually kcat stands for the maximal rate divided by the concentration of active sites. Broadly, the MIC is the lowest concentration found to suppress growth.

Data set [1] deals with Escherichia coli. Briefly: Ratio of Kcat to Km in Escherichia coli beta-lactamase SHV-84.
The subject of data set [2] is Escherichia coli. Nature of the data set: Activity at Escherichia coli beta-lactamase SHV-84.
The subject of data set [3] is Escherichia coli. Nature of the data set: Antimicrobial activity against Escherichia coli DH5alpha expressing SHV-1. It counts as functional.
The subject of data set [4] is Escherichia coli. Nature of the data set: Antimicrobial activity against Escherichia coli DH5alpha in presence of 2 ug/ml clavulanic acid beta-lactamase inhibitor. It counts as functional.
Data set [5] has as its system Escherichia coli. Nature of the data set: Antimicrobial activity against Escherichia coli DH5alpha. It counts as functional.
Data set [6] has as its system Escherichia coli. Nature of the data set: Antimicrobial activity against Escherichia coli INSRA4590 expressing SHV-84. It counts as functional.
Data set [7] deals with Escherichia coli. Briefly: Antimicrobial activity against Escherichia coli DH5alpha expressing SHV-84. It counts as functional.
Data set [8] has as its system Escherichia coli. Nature of the data set: Antimicrobial activity against Escherichia coli DH5alpha expressing SHV-84 in presence of 2 ug/ml clavulanic acid beta-lactamase inhibitor. It counts as functional.
The test system of data set [9] is Escherichia coli. Briefly: Antimicrobial activity against Escherichia coli DH5alpha expressing SHV-1 in presence of 2 ug/ml clavulanic acid beta-lactamase inhibitor. It counts as functional.
For data set [10], the system named is Escherichia coli. Nature of the data set: Antimicrobial activity against Escherichia coli INSRA4590 expressing SHV-84 in presence of 2 ug/ml clavulanic acid beta-lactamase inhibitor. It counts as functional.
Data set [11] has as its system Escherichia coli. Briefly: Antimicrobial activity against Escherichia coli INSRA4590 expressing SHV-84 in presence of 4 ug/ml Tazobactam beta-lactamase inhibitor. It counts as functional.
The subject of data set [12] is Escherichia coli. Nature of the data set: Antimicrobial activity against Escherichia coli DH5alpha expressing SHV-84 in presence of 4 ug/ml Tazobactam beta-lactamase inhibitor. It counts as functional.
In data set [13] the test system is Escherichia coli. Nature of the data set: Antimicrobial activity against Escherichia coli DH5alpha in presence of 4 ug/ml Tazobactam beta-lactamase inhibitor. It counts as functional.
In data set [14] the test system is Escherichia coli. Briefly: Antimicrobial activity against Escherichia coli DH5alpha expressing SHV-1 in presence of 4 ug/ml Tazobactam beta-lactamase inhibitor. It counts as functional.
Substrate in data set [15]: CC(=O)OCC1=C(C(=O)O)N2C(=O)[C@@H](NC(=O)Cc3cccs3)[C@H]2SC1
Briefly: (§1) Activity at Escherichia coli beta-lactamase SHV-1.

Substrate in data set [16]: CC1(C)S[C@@H]2[C@H](NC(=O)[C@H](C(=O)O)c3ccsc3)C(=O)N2[C@H]1C(=O)O
The description is as §1.

Substrate in data set [17]: CC1(C)S[C@@H]2[C@H](NC(=O)Cc3ccccc3)C(=O)N2[C@H]1C(=O)O
The data set is described as §1.

Substrate in data set [18]: CC1(C)S[C@@H]2[C@H](NC(=O)[C@H](N)c3ccc(O)cc3)C(=O)N2[C@H]1C(=O)O
Described as §1.

Substrate in data set [19]: CC(C)(O/N=C(\C(=O)N[C@@H]1C(=O)N2C(C(=O)[O-])=C(C[n+]3ccccc3)CS[C@H]12)c1csc(N)n1)C(=O)O
The data set is described as §1.

Substrate in data set [20]: CCN1CCN(C(=O)N[C@@H](C(=O)N[C@@H]2C(=O)N3[C@@H]2SC(C)(C)[C@@H]3C(=O)O)c2ccccc2)C(=O)C1=O
The data set is described as §1.

Substrate in data set [21]: CO/N=C(\C(=O)N[C@@H]1C(=O)N2C(C(=O)O)=C(COC(C)=O)CS[C@H]12)c1csc(N)n1
The data set is described as §1.

Substrate in data set [22]: CC1(C)S[C@@H]2[C@H](NC(=O)[C@H](C(=O)O)c3ccsc3)C(=O)N2[C@H]1C(=O)O
Briefly: (§2) Ratio of Kcat to Km in Escherichia coli beta-lactamase SHV-1.

Substrate in data set [23]: CC1(C)S[C@@H]2[C@H](NC(=O)Cc3ccccc3)C(=O)N2[C@H]1C(=O)O
The data set is described as §2.

Substrate in data set [24]: CC1(C)S[C@@H]2[C@H](NC(=O)[C@H](N)c3ccc(O)cc3)C(=O)N2[C@H]1C(=O)O
The data set is described as §2.

Substrate in data set [25]: CCN1CCN(C(=O)N[C@@H](C(=O)N[C@@H]2C(=O)N3[C@@H]2SC(C)(C)[C@@H]3C(=O)O)c2ccccc2)C(=O)C1=O
Described as §2.

In brackets after ≈: the same amount, converted by molar mass.

Take `CC1(C)S[C@@H]2[C@H](NC(=O)Cc3ccccc3)C(=O)N2[C@H]1C(=O)O`: in the data set on Escherichia coli [1], the kcat/Km came to 9.5e+06 M⁻¹ s⁻¹. In the data set with Escherichia coli [2], the Michaelis-Menten constant (Km) worked out at 64 µM and the turnover number (kcat) worked out at 611 s⁻¹.

In the case of `CC1(C)S[C@@H]2[C@H](NC(=O)[C@H](N)c3ccc(O)cc3)C(=O)N2[C@H]1C(=O)O` [AMOXICILLIN], the minimal inhibitory concentration (MIC) with Escherichia coli [3] is 2050 µg/mL (≈ 5600 µM); in the data set with Escherichia coli [4], not above 2 µg/mL; in the data set with Escherichia coli [5] it was not above 2 µg/mL; against Escherichia coli [6] it was 512 µg/mL (≈ 1400 µM); with Escherichia coli [7] it was 2050 µg/mL (≈ 5600 µM); in the data set with Escherichia coli [8], more than 64 µg/mL. The MIC in the data set with Escherichia coli [9] worked out at 8 µg/mL; in the data set with Escherichia coli [10] it was 64 µg/mL. In addition, the kcat/Km in the data set with Escherichia coli [1] turned out to be 1.04e+07 M⁻¹ s⁻¹. Moreover, in the data set on Escherichia coli [2], the Michaelis constant (Km) stood at 101 µM. Moreover, in the data set with Escherichia coli [2], the turnover number (kcat) came out at 1040 s⁻¹.

For the molecule `C[C@H]1[C@H](NC(=O)/C(=N\OC(C)(C)C(=O)O)c2csc(N)n2)C(=O)N1S(=O)(=O)O` [AZTREONAM], the minimum inhibitory concentration (MIC) with Escherichia coli [6] and with Escherichia coli [7] was 0.03 µg/mL (≈ 0.0689 µM) each time.

Regarding `CO/N=C(\C(=O)N[C@@H]1C(=O)N2C(C(=O)O)=C(COC(C)=O)CS[C@H]12)c1csc(N)n1` [CEFOTAXIME], the MIC against Escherichia coli [3] was 0.06 µg/mL (≈ 0.132 µM); with Escherichia coli [5], not above 0.015 µg/mL; in the data set with Escherichia coli [6] it was 0.125 µg/mL (≈ 0.274 µM); in the data set on Escherichia coli [7] it was 0.06 µg/mL (≈ 0.132 µM). In addition, in the data set with Escherichia coli [2], the turnover number (kcat) is less than 0.1 s⁻¹.

In the case of `CC(C)(O/N=C(\C(=O)N[C@@H]1C(=O)N2C(C(=O)[O-])=C(C[n+]3ccccc3)CS[C@H]12)c1csc(N)n1)C(=O)O` [CEFTAZIDIME], the MIC turned out to be 0.5 µg/mL (≈ 0.915 µM) with Escherichia coli [3], 0.06 µg/mL (≈ 0.11 µM) against Escherichia coli [5], 0.25 µg/mL (≈ 0.457 µM) in the data set on Escherichia coli [6] and 0.25 µg/mL (≈ 0.457 µM) in the data set with Escherichia coli [7]. Besides, the catalytic constant (kcat) in the data set on Escherichia coli [2] is less than 0.1 s⁻¹.

For the molecule `CC(=O)OCC1=C(C(=O)O)N2C(=O)[C@@H](NC(=O)Cc3cccs3)[C@H]2SC1` [CEPHALOTHIN], the MIC against Escherichia coli [3] stood at 16 µg/mL (≈ 40.4 µM); with Escherichia coli [5], 1 µg/mL (≈ 2.52 µM); with Escherichia coli [6] it was 8 µg/mL (≈ 20.2 µM); in the data set on Escherichia coli [7] it was 8 µg/mL (≈ 20.2 µM). Besides, in the data set on Escherichia coli [1], the catalytic efficiency (kcat/Km) was determined as 20000 M⁻¹ s⁻¹. Besides, the Km in the data set with Escherichia coli [2] is 169 µM. For the same molecule, the catalytic constant (kcat) with Escherichia coli [2] turned out to be 4 s⁻¹.

Turning to `CCN1CCN(C(=O)N[C@@H](C(=O)N[C@@H]2C(=O)N3[C@@H]2SC(C)(C)[C@@H]3C(=O)O)c2ccccc2)C(=O)C1=O` [PIPERACILLIN], the MIC was 4 µg/mL in the data set with Escherichia coli [11]; 64 µg/mL (≈ 124 µM) against Escherichia coli [3]; 1 µg/mL (≈ 1.93 µM) with Escherichia coli [5]; 64 µg/mL (≈ 124 µM) against Escherichia coli [6]; 128 µg/mL (≈ 247 µM) with Escherichia coli [7]; 2 µg/mL with Escherichia coli [12]. Moreover, the figures for the minimum inhibitory concentration (MIC) in the data set with Escherichia coli [13] and in the data set on Escherichia coli [14] were 1 µg/mL and 2 µg/mL, respectively. Besides, in the data set on Escherichia coli [1], the kcat/Km is 6e+06 M⁻¹ s⁻¹. Further, the Km with Escherichia coli [2] came to 68 µM. For the same molecule, the catalytic constant (kcat) in the data set on Escherichia coli [2] was determined as 406 s⁻¹.

On to `CC1(C)S[C@@H]2[C@H](NC(=O)[C@H](C(=O)O)c3ccsc3)C(=O)N2[C@H]1C(=O)O` [TICARCILLIN], for which the MIC was 1020 µg/mL (≈ 2660 µM) in the data set with Escherichia coli [3], not above 2 µg/mL against Escherichia coli [5], more than 4100 µg/mL in the data set with Escherichia coli [6] and more than 4100 µg/mL against Escherichia coli [7]. In the data set on Escherichia coli [1], the kcat/Km is 2.5e+06 M⁻¹ s⁻¹. Moreover, the Michaelis constant (Km) in the data set on Escherichia coli [2] was found to be 83 µM. Moreover, in the data set on Escherichia coli [2], the kcat worked out at 216 s⁻¹.

B1: Beta-lactamase SHV-1 (Escherichia coli), P0AD63 (protein)
chain: MRYIRLCIISLLATLPLAVHASPQPLEQIKLSESQLSGRVGMIEMDLASGRTLTAWRADERFPMMSTFKVVLCGAVLARVDAGDEQLERKIHYRQQDLVDYSPVSEKHLADGMTVGELCAAAITMSDNSAANLLLATVGGPAGLTAFLRQIGDNVTRLDRWETELNEALPGDARDTTTPASMAATLRKLLTSQRLSARSQRQLLQWMVDDRVAGPLIRSVLPAGWFIADKTGAGERGARGIVALLGPNNKAERIVVIYLRDTPASMAERNQQIAGIGAALIEHWQR
With B1, the Michaelis constant (Km) in data set [15] is 40 µM; in data set [16] it was 11 µM; in [17], 23 µM; in data set [18] it was 31 µM; in data set [20], 24 µM. The kcat in [15] is 128 s⁻¹; in data set [16], 220 s⁻¹; in data set [17], 1940 s⁻¹; in [19], less than 0.1 s⁻¹; in data set [20], 1490 s⁻¹; in [21], less than 0.1 s⁻¹. Besides, the kcat/Km in data set [22] was 2e+07 M⁻¹ s⁻¹; in data set [23], 8.42e+07 M⁻¹ s⁻¹; in data set [24], 3.37e+07 M⁻¹ s⁻¹; in [25] it was 6.21e+07 M⁻¹ s⁻¹.

Values taken from ChEMBL document CHEMBL1255455, “Biochemical study of a new inhibitor-resistant beta-lactamase, SHV-84, produced by a clinical Escherichia coli strain” (2010).
